Laboratory results published in patent publication US20160194274A1, “PHENANTHRENE DERIVATIVES FOR USE AS MEDICAMENTS” (VALENTIA BIOPHARMA, priority 2012, published 2016).

What was measured:
[1] = test system: ribonuclear foci in MyoD transformed fibroblasts derived from DM1 patients (>300 CTG repeats); assay: FISH detection of aberrant ribonuclear foci in human DM1 fibroblasts; type: cell-based; conditions: 24 h treatment, vs no treatment
Procedure: FIG. 1. Quantification of aberrant ribonuclear foci (DM1 disease hallmark) in human DM1 fibroblasts. Treatments with the compounds of Formula I were performed (VLT002, VLT015, VLT025, VLT024, VLT042, VLT040, VLT023, VLT026, VLT048, VLT045, VLT043, VLT049, VLT051 VLT053 and VLT056). (A) Number (medium) of foci/nuclei (No treatment vs. compound treatment). (B) Number of cells without foci (No treatment vs. compound treatment). n=100 minimum number of cells counted. T-Student test: * indicates p-value <0.05 ** p-value p<0.005 *** p-value p<0.0005.
After screening identification of the compounds of the invention (see FIG. 10), main validation was done using Fluorescence In Situ Hybridization (FISH) detection of aberrant aggregation of ribonuclear foci in cell lines from DM1 patients (see FIG. 1) and in DM1 Drosophila model (see FIG. 2) (Garcia-Lopez et al., Proc. Natl. Acad. Sci. USA. 108(29):11866-71 (2011)). Briefly, regarding human cells, it was used MyoD transformed fibroblasts derived from clinically diagnosed DM1 patients (>300 CTG repeats) routinely growing in DMEM supplemented with 10% heat-inactivated fetal bovine serum and maintained at 37° C. in a humidified incubator containing 5% CO2. To detect ribonuclear foci, cells were cultured over cover-slides in flat bottomed 24-well plates, after 24 h compounds of the invention were added to the cells at desiderate concentration, 24 h later in situ hybridization was done by fixing with 4% paraformaldehyde (PFA) 15 min at room temperature, and washed and stored in 70% ethanol. Cells were rehydrated with PBS and pre-hybridized 10 min at room temperature with a pre-hybridization buffer (formamide 30%, 2× saline-sodium citrate buffer (SSC)). Hybridization was performed in a light-proof wet chamber using the same pre-hybridization buffer supplemented with 0.02% bovine serum albumin (BSA), 1 mg/ml yeast tRNA (Sigma), 2 mM sodium (meta)vanadate, 1 mg/ml sperm DNA, 10% dextran sulfate and 1 ng/μl RNase free HPCL-purified Cy3-labeled (CAG)10 RNA. After hybridization cells were washed 2×15 minutes at 45° C. with the pre-hybridization buffer and washed with 1×PBS at room temperature. Slides were mounted with Vectashield solution with DAPI and number of foci by cell and number of cells with/without foci (see FIG. 1) were counted in a minimum of 100 cells for each treatment and concentration tested with a 63× objective in a Leica microscope. Same FISH approach was performed in Drosophila DM1 flies, where thoraces were embedded in OCT and transversal sections were taken with a Leica CM 15105 cryomicrotome. Sections were processed for in situ hybridization and counting for number of foci by cell with the same Cy3-labeled (CAG)10 probe (see FIG. 2).

[2] = test system: cTNT exon 5 splicing; assay: RT-PCR of cTNT splicing event in human myoblasts; type: cell-based
Procedure: FIG. 5. Recovering of DM1 aberrant cTNT splicing event. […] Upper section, right: Recovering was significant at 25 μM.
Additional assays involved: • Reverse Transcription-PCR (RT-PCR) to detect levels of normal/aberrant splicing events in specific genes. This approach was performed in human cells from patients (see FIG. 5) or from DM1 mouse (see FIG. 8 up) (HSA^LR, Mankodi A et al., Science, 289:1769-1773 (2000)) tissues (skeletal muscle), from which total RNA was extracted from ˜0.5-1.5×10^5 cells using the Zygem Tissue Plus kit. Serca 1, Cypher or cTNNT genes reverse transcription were performed and quantification of normal/aberrant spliced band forms was obtained (ImageJ software) after running PCR products in 2% agarose gels. As shown in FIGS. 5 and 8 compounds of the invention are able to recover disease phenotypes. • Drosophila Muscle Histology, where five-day old Drosophila thoraces were embedded in Epon for transversal, semi-thin sectioning. Muscle area was quantified (see FIG. 3) by binarizing images (equal dimensions) and quantifying pixels (%) within muscle tissue with ImageJ software. […] A minimum of 8 flies were analyzed in each case.

[3] = test system: CCUG FAM-RNA probe; assay: Gel retardation assay with FAM-CCUG probe (DM2); type: binding
Procedure: (§1) FIG. 9. VLT002 binding assessment in additional toxic repeats linked to disease through hairpin formation.
(§2) Fluorescence Electrophoretic Mobility Shift Assay to test RNA-compound binding. Briefly, an aliquot of carboxyfluorescein (FAM)-CUG10 RNA (DM1, HDL2, SCA8; see FIG. 6) was heated at 70° C. for 5 min and diluted to 300 nM. The binding reaction with compounds was then carried out as described in (Garcia-Lopez A et al. Proc. Natl. Acad. Sci. USA. 108(29):11866-71 (2011)). The reaction mix was loaded onto 8% polyacrylamide nondenaturing gels, and electrophoresis was conducted at 4° C. in TB 1× for approximately 30 min at 240V, followed by fluorescence visualization. Quantification of the free RNA band intensity was carried out using the ImageJ software. A non-linear regression analysis was used to calculate EC50, based on a total of three experimental replicates. Same approach was developed with (FAM)-CCUG8 (DM2), CAG10 (SCA3), CGG10 (FXTAS), GGGGCC5 (ALS/FSD), UGGAA6 (SCA31) probes (see FIG. 9).

[4] = test system: CAG FAM-RNA probe; assay: Gel retardation assay with FAM-CAG probe (SCA3); type: binding
Procedure: as §1, §2

[5] = test system: CGG FAM-RNA probe; assay: Gel retardation assay with FAM-CGG probe (FXTAS); type: binding
Procedure: as §1, §2

[6] = test system: GGGGCC FAM-RNA probe; assay: Gel retardation assay with FAM-GGGGCC probe (FTD/ALS); type: binding
Procedure: as §1, §2

[7] = test system: FAM-CUU probe; assay: Gel retardation assay with FAM-CUU probe (negative control); type: binding

Compound | aberrant ribonuclear foci: number of foci/nuclei (A) and/or number of cells without foci (B) [1] | recovering of normal cTNT splicing (ex5 exclusion) ([2]; DM1 myoblasts, 25 μM) | expression of housekeeping gene (GAPDH) ([2]; human myoblasts) | levels of cTNT exon 5 exclusion in no DM1 cells ([2]; no DM1 human myoblasts, dose-response) | binding to CCUG (DM2) probe [3] | binding to CAG (SCA3) probe [4] | binding to CGG (FXTAS) probe [5] | binding to GGGGCC (FTD/ALS) probe [6] | binding to FAM-CUU probe [7]
CN(C)CCc1cc2c(c3c1ccc1ccccc13)OCO2 [VLT002, Stephenanthrine] | significant reduction | partial recovering | No expression changes | no changes | caused retention of the complex in the well | caused retention of the complex in the well | caused retention of the complex in the well | caused retention of the complex in the well | did not bind
C[N+](C)(C)CCc1cc2c(c3c1ccc1ccccc13)OCO2 [VLT025] | significant reduction |  |  |  |  |  |  |  | 
